Inhibition data for 22 molecules are collected here from patent US10435399B2, “HDAC6 inhibitory heterocyclic compound” (TAKEDA PHARMACEUTICAL COMPANY LIMITED, priority 2017, dated 2019).

The assay concerns the target T1, HDAC6 enzyme (Homo sapiens, UniProt Q9UBN7).
T1 construct: transducing full length HDAC6 gene into Sf-9 insect cells; GST; purchased SignalChem; host or cells: Sf-9 insect cells
T1 sequence (Q9UBN7 1-1215): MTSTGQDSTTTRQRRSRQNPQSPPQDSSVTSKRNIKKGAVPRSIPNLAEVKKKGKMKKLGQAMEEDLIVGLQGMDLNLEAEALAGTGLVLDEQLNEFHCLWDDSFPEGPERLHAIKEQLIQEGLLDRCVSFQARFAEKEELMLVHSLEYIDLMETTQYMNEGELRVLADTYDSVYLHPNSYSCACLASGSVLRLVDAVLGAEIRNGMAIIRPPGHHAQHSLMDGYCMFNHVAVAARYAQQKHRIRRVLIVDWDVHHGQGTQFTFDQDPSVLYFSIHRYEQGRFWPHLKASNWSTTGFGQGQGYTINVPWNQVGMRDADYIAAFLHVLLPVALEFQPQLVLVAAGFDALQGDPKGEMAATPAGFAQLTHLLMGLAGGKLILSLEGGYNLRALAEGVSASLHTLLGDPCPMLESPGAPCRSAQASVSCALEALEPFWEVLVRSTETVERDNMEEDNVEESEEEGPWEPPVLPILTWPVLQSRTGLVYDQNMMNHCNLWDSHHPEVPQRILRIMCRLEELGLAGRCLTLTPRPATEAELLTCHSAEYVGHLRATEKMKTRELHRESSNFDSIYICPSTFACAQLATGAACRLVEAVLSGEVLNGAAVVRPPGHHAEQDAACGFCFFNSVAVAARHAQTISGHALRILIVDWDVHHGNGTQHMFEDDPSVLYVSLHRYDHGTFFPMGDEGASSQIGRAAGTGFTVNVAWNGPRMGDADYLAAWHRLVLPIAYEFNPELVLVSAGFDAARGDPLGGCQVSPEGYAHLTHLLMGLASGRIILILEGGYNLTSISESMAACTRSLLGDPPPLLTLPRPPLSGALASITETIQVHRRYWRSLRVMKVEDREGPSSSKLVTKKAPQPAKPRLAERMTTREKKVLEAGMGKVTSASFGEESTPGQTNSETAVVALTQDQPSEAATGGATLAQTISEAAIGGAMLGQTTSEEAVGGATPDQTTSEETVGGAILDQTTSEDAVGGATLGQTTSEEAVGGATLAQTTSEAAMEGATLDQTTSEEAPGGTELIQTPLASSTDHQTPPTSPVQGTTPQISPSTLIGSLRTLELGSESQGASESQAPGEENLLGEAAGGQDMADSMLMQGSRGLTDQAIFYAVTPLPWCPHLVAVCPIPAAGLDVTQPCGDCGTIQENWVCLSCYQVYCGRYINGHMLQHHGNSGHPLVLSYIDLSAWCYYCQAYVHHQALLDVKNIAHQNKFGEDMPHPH
Nature of the assay: HDAC6 enzyme inhibitory activity (HDAC-Glo I/II Assay kit). The class given is biochemical. Particulars: 10 μM; wells without enzyme = 100% inhibition; read-out: HDAC6 inhibitory rate (%) (10 μM). The essentials:
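Luminescence read-out after 20 min reaction with HDAC-Glo substrate-developer, following 60 min room-temperature preincubation of compound with Sf-9-expressed, GST-purified full-length enzyme. Inhibition is relative to no-enzyme wells set as 100%.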
As for `O=C1c2cc(-c3nnc(C(F)F)o3)ccc2CN1[C@@H]1CCCC[C@H]1NC(=O)C1(c2ccccc2)CCC1` [Example 89, N-((1R,2R)-2-(6-(5-(difluoromethyl)-1,3,4-oxadiazol-2-yl)-1-oxo-1,3-dihydro-2H-isoindol-2-yl)cyclohexyl)-1-phenylcyclobutanecarboxamide], the inhibition at 10 µM came to 100%.
As for `O=C1c2cc(-c3nnc(C(F)F)o3)ccc2CN1[C@@H]1CCCC[C@H]1NC(=O)C1(c2ccccc2)COC1` [Example 90, N-((1R,2R)-2-(6-(5-(difluoromethyl)-1,3,4-oxadiazol-2-yl)-1-oxo-1,3-dihydro-2H-isoindol-2-yl)cyclohexyl)-3-phenyloxetane-3-carboxamide], the inhibition at 10 µM came to 100%.
With `O=C(N[C@@H]1CCCC[C@H]1N1Cc2ccc(-c3nnc(C(F)F)o3)cc2C1=O)C1COC1` [Example 91, N-((1R,2R)-2-(6-(5-(difluoromethyl)-1,3,4-oxadiazol-2-yl)-1-oxo-1,3-dihydro-2H-isoindol-2-yl)cyclohexyl)oxetane-3-carboxamide], the inhibition at 10 µM is 100%.
With `CCC1(C(=O)N[C@@H]2CCCC[C@H]2N2Cc3ccc(-c4nnc(C(F)F)o4)cc3C2=O)COC1` [Example 92, N-((1R,2R)-2-(6-(5-(difluoromethyl)-1,3,4-oxadiazol-2-yl)-1-oxo-1,3-dihydro-2H-isoindol-2-yl)cyclohexyl)-3-ethyloxetane-3-carboxamide], the inhibition at 10 µM amounted to 101%.
Turning to `O=C(N[C@@H]1CCCC[C@H]1N1Cc2ccc(-c3nnc(C(F)F)o3)cc2C1=O)[C@@H]1CCCO1` [Example 93, (2S)-N-((1R,2R)-2-(6-(5-(difluoromethyl)-1,3,4-oxadiazol-2-yl)-1-oxo-1,3-dihydro-2H-isoindol-2-yl)cyclohexyl)tetrahydrofuran-2-carboxamide], the inhibition at 10 µM was 100%.
To `O=C(N[C@@H]1CCCC[C@H]1N1Cc2ccc(-c3nnc(C(F)F)o3)cc2C1=O)[C@@H]1CCOC1` [Example 94] belongs 100%; to `O=C(N[C@@H]1CCCC[C@H]1N1Cc2ccc(-c3nnc(C(F)F)o3)cc2C1=O)C1CCOCC1` [Example 95, N-((1R,2R)-2-(6-(5-(difluoromethyl)-1,3,4-oxadiazol-2-yl)-1-oxo-1,3-dihydro-2H-isoindol-2-yl)cyclohexyl)tetrahydro-2H-pyran-4-carboxamide], 96%; to `Cn1cncc1C(=O)N[C@@H]1CCCC[C@H]1N1Cc2ccc(-c3nnc(C(F)F)o3)cc2C1=O` [Example 96, N-((1R,2R)-2-(6-(5-(difluoromethyl)-1,3,4-oxadiazol-2-yl)-1-oxo-1,3-dihydro-2H-isoindol-2-yl)cyclohexyl)-1-methyl-1H-imidazole-5-carboxamide], 98%.
As for `Cn1cc(C(=O)N[C@@H]2CCCC[C@H]2N2Cc3ccc(-c4nnc(C(F)F)o4)cc3C2=O)cn1` [Example 97, N-((1R,2R)-2-(6-(5-(difluoromethyl)-1,3,4-oxadiazol-2-yl)-1-oxo-1,3-dihydro-2H-isoindol-2-yl)cyclohexyl)-1-methyl-1H-pyrazole-4-carboxamide], the inhibition at 10 µM stood at 100%.
With `O=C(N[C@@H]1CCCC[C@H]1N1Cc2ccc(-c3nnc(C(F)F)o3)cc2C1=O)c1ccccc1` [Example 98, N-((1R,2R)-2-(6-(5-(difluoromethyl)-1,3,4-oxadiazol-2-yl)-1-oxo-1,3-dihydro-2H-isoindol-2-yl)cyclohexyl)benzamide], the inhibition at 10 µM is 101%.
As to `O=C(N[C@@H]1CCCC[C@H]1N1Cc2ccc(-c3nnc(C(F)F)o3)cc2C1=O)c1ccccc1Cl` [Example 99, 2-chloro-N-((1R,2R)-2-(6-(5-(difluoromethyl)-1,3,4-oxadiazol-2-yl)-1-oxo-1,3-dihydro-2H-isoindol-2-yl)cyclohexyl)benzamide], the inhibition at 10 µM worked out at 100%.
To `O=C(N[C@@H]1CCCC[C@H]1N1Cc2ccc(-c3nnc(C(F)F)o3)cc2C1=O)c1cccc(Cl)c1` [Example 100, 3-chloro-N-((1R,2R)-2-(6-(5-(difluoromethyl)-1,3,4-oxadiazol-2-yl)-1-oxo-1,3-dihydro-2H-isoindol-2-yl)cyclohexyl)benzamide] belongs 100%.
Take `O=C(N[C@@H]1CCCC[C@H]1N1Cc2ccc(-c3nnc(C(F)F)o3)cc2C1=O)c1ccc(Cl)cc1` [Example 101, 4-chloro-N-((1R,2R)-2-(6-(5-(difluoromethyl)-1,3,4-oxadiazol-2-yl)-1-oxo-1,3-dihydro-2H-isoindol-2-yl)cyclohexyl)benzamide]: the inhibition at 10 µM came out at 99%.
Consider `O=C(N[C@@H]1CCCC[C@H]1N1Cc2ccc(-c3nnc(C(F)F)o3)cc2C1=O)C1CCC(F)(F)CC1` [Example 102, N-((1R,2R)-2-(6-(5-(difluoromethyl)-1,3,4-oxadiazol-2-yl)-1-oxo-1,3-dihydro-2H-isoindol-2-yl)cyclohexyl)-4,4-difluorocyclohexanecarboxamide], for which the inhibition at 10 µM was determined as 96%.
Turning to `C[C@](O)(C(=O)N[C@@H]1CCCC[C@H]1N1Cc2ccc(-c3nnc(C(F)F)o3)cc2C1=O)C(F)(F)F` [Example 103, (2S)-N-((1R,2R)-2-(6-(5-(difluoromethyl)-1,3,4-oxadiazol-2-yl)-1-oxo-1,3-dihydro-2H-isoindol-2-yl)cyclohexyl)-3,3,3-trifluoro-2-hydroxy-2-methylpropanamide], the inhibition at 10 µM worked out at 98%.
`C[C@@](O)(C(=O)N[C@@H]1CCCC[C@H]1N1Cc2ccc(-c3nnc(C(F)F)o3)cc2C1=O)C(F)(F)F` [Example 104, (2R)-N-((1R,2R)-2-(6-(5-(difluoromethyl)-1,3,4-oxadiazol-2-yl)-1-oxo-1,3-dihydro-2H-isoindol-2-yl)cyclohexyl)-3,3,3-trifluoro-2-hydroxy-2-methylpropanamide]: the inhibition at 10 µM was determined as 97%.
For `O=C(N[C@@H]1CCCC[C@H]1N1Cc2ccc(-c3nnc(C(F)F)o3)cc2C1=O)c1ccccn1` [Example 105, N-((1R,2R)-2-(6-(5-(difluoromethyl)-1,3,4-oxadiazol-2-yl)-1-oxo-1,3-dihydro-2H-isoindol-2-yl)cyclohexyl)pyridine-2-carboxamide], the inhibition at 10 µM is 98%.
In the case of `CC(C)(F)C(=O)N[C@@H]1CCCC[C@H]1N1Cc2ccc(-c3nnc(C(F)F)o3)cc2C1=O` [Example 106, N-((1R,2R)-2-(6-(5-(difluoromethyl)-1,3,4-oxadiazol-2-yl)-1-oxo-1,3-dihydro-2H-isoindol-2-yl)cyclohexyl)-2-fluoro-2-methylpropanamide], the inhibition at 10 µM is 99%.
To `CCCCCCC(=O)N[C@@H]1CCCC[C@H]1N1Cc2ccc(-c3nnc(C(F)F)o3)cc2C1=O` [Example 107, N-((1R,2R)-2-(6-(5-(difluoromethyl)-1,3,4-oxadiazol-2-yl)-1-oxo-1,3-dihydro-2H-isoindol-2-yl)cyclohexyl)heptanamide] belongs 102%; to `O=C1c2cc(-c3nnc(C(F)F)o3)ccc2CN1[C@@H]1CCCC[C@H]1NC(=O)C1(c2ccc(F)cc2)CC1` [Example 108, N-((1R,2R)-2-(6-(5-(difluoromethyl)-1,3,4-oxadiazol-2-yl)-1-oxo-1,3-dihydro-2H-isoindol-2-yl)cyclohexyl)-1-(4-fluorophenyl)cyclopropanecarboxamide], 100%.
With `O=C1c2cc(-c3nnc(C(F)F)o3)ccc2CN1[C@@H]1CCCC[C@H]1NC(=O)C1(c2ccc(F)cc2)CCC1` [Example 109, N-((1R,2R)-2-(6-(5-(difluoromethyl)-1,3,4-oxadiazol-2-yl)-1-oxo-1,3-dihydro-2H-isoindol-2-yl)cyclohexyl)-1-(4-fluorophenyl)cyclobutanecarboxamide], the inhibition at 10 µM was 97%.
On to `O=C(CC1CCC1)N[C@@H]1CCCC[C@H]1N1Cc2ccc(-c3nnc(C(F)F)o3)cc2C1=O` [Example 110, 2-cyclobutyl-N-((1R,2R)-2-(6-(5-(difluoromethyl)-1,3,4-oxadiazol-2-yl)-1-oxo-1,3-dihydro-2H-isoindol-2-yl)cyclohexyl)acetamide], for which the inhibition at 10 µM was determined as 98%.
